Each block holds one compound with its values, some of them ahead of it.
What was measured:
[1] = target: T1, human adenosine A1 receptor (Homo sapiens, UniProt P30542); assay: Inhibition binding assay, human adenosine A1 receptor membranes, [3H]DPCPX; details: 1 nM [3H]DPCPX, 25° C., 1 h; IC50 converted to Ki with Cheng-Prusoff; read-out: A1 pKi (converted)
T1 construct: expressed in transfected cells; host or cells: HEK293 cells infected with BacMam (the same paragraph also labels the preparation CHO-hA1)
T1 sequence (P30542 1-326): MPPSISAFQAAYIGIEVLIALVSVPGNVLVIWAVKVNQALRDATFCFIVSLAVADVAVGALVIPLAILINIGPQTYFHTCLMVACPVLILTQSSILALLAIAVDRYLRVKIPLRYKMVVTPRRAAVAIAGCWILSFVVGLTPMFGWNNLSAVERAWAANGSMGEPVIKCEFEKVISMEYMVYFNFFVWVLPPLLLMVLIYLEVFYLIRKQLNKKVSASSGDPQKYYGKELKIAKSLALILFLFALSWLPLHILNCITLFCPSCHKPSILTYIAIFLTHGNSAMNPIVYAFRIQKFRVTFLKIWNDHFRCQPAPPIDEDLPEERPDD
Description: (§1) Inhibition binding assays were performed using 0.2 μg of membranes prepared from HEK293 cells infected with BacMam human adenosine A2A receptor or 1.4 μg of membranes prepared from HEK293 cells infected with BacMam human adenosine A1 receptor. Membranes were incubated in 50 mM Tris-HCl (HEK293-hA2A; pH 7.4) or 50 mM Tris-HCl, 100 mM NaCl, 10 mM MgCl2 (CHO-hA1; pH 7.4) in the presence of varying concentrations of test compound and 1 nM [^3H]ZM241385 (HEK293-hA2A) or [^3H]DPCPX (CHO-hA1) at 25° C. for 1 h. The assay was then terminated by rapid filtration onto GF/B grade Unifilter plates using a TomTec cell harvester, followed by 5×0.5 ml washes with ddH2O. Nonspecific binding was defined in the presence of 1 μM CGS15943 (HEK293-hA2A) or 1 μM DPCPX (CHO-hA1). Bound radioactivity was determined by liquid scintillation counting and inhibition curves were analysed using a four-parameter logistic equation. IC50 values were converted to Ki values with the Cheng-Prusoff equation using a KD value derived from saturation binding studies.

[2] = target: T2, human adenosine A2A receptor (Homo sapiens, UniProt P29274); assay: Inhibition binding assay, human adenosine A2A receptor membranes, [3H]ZM241385; details: 1 nM [3H]ZM241385, HEK293-hA2A membranes, 25° C., 1 h; IC50 converted to Ki with Cheng-Prusoff; read-out: A2A pKi (converted)
T2 construct: expressed in transfected cells; host or cells: HEK293 cells infected with BacMam
Description: as §1

T2 sequence (P29274 whole entry): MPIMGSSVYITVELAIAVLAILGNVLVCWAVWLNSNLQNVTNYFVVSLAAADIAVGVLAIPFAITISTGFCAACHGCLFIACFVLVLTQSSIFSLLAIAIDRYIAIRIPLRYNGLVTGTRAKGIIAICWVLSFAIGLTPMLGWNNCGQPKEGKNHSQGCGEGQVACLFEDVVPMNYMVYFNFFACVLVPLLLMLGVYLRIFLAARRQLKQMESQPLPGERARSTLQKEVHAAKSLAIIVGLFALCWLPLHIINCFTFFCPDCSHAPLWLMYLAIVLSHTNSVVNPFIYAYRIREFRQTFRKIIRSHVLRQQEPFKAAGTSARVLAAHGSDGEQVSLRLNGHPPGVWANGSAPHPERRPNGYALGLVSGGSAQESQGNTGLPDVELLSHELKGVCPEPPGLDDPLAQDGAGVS

Ki [1]: > 2510 nM
Ki [2]: 25.1 nM
SMILES: Cc1cc(-c2c(-c3ccccc3)nc(N)n3c(=O)n(CCN4CCC4)nc23)cc(C)n1 [Example 2-94, 5-amino-2-[2-(azetidin-1-yl)ethyl]-8-(2,6-dimethyl-4-pyridyl)-7-phenyl-[1,2,4]triazolo[4,3-c]pyrimidin-3-one]

Ki [2]: 79.4 nM
SMILES: Cc1cc(-c2c(-c3ccccc3)nc(N)n3c(=O)n(C[C@@H]4CNCCN4C)nc23)cc(C)n1 [Example 2-88, 5-amino-8-(2,6-dimethyl-4-pyridyl)-2-[[(2S)-1-methylpiperazin-2-yl]methyl]-7-phenyl-[1,2,4]triazolo[4,3-c]pyrimidin-3-one]

Ki [2]: 25.1 nM
SMILES: Cc1cc(-c2c(-c3ccccc3)nc(N)n3c(=O)n(C[C@H]4CNCCN4C)nc23)cc(C)n1 [Example 2-86, 5-amino-8-(2,6-dimethyl-4-pyridyl)-2-[[(2R)-1-methylpiperazin-2-yl]methyl]-7-phenyl-[1,2,4]triazolo[4,3-c]pyrimidin-3-one]

Ki [2]: 100 nM
SMILES: Cc1cc(-c2c(-c3ccccc3)nc(N)n3c(=O)n(C[C@@H]4CN(C)CCN4C)nc23)cc(C)n1 [Example 2-87, (S)-5-amino-2-((1,4-dimethylpiperazin-2-yl)methyl)-8-(2,6-dimethylpyridin-4-yl)-7-phenyl-[1,2,4]triazolo[4,3-c]pyrimidin-3(2H)-one]

Ki [2]: 7.94 nM
SMILES: Cc1cc(-c2c(-c3ccccc3)nc(N)n3c(=O)n(C[C@H]4CN(C)CCN4C)nc23)cc(C)n1 [Example 2-85, (R)-5-amino-2-((1,4-dimethylpiperazin-2-yl)methyl)-8-(2,6-dimethylpyridin-4-yl)-7-phenyl-[1,2,4]triazolo[4,3-c]pyrimidin-3(2H)-one]

Ki [2]: 20 nM
SMILES: Cc1cc(-c2c(-c3ccccc3)nc(N)n3c(=O)n(CCN4CCCC(C)C4)nc23)cc(C)n1 (stereo not drawn) [Example 2-98, 5-amino-8-(2,6-dimethyl-4-pyridyl)-2-[2-(3-methyl-1-piperidyl)ethyl]-7-phenyl-[1,2,4]triazolo[4,3-c]pyrimidin-3-one]

Ki [2]: 15.8 nM
SMILES: Cc1cc(-c2c(-c3ccccc3)nc(N)n3c(=O)n(C[C@H]4CN(C)CCO4)nc23)cc(C)n1 [Example 2-74, 5-amino-8-(2,6-dimethyl-4-pyridyl)-2-[[(2R)-4-methylmorpholin-2-yl]methyl]-7-phenyl-[1,2,4]triazolo[4,3-c]pyrimidin-3-one]

Ki [2]: 100 nM
SMILES: Cc1cc(-c2c(-c3ccccc3)nc(N)n3c(=O)n(C[C@H]4COCCN4C(=O)OC(C)(C)C)nc23)cc(C)n1 [Example 2-75, tert-butyl (3S)-3-[[5-amino-8-(2,6-dimethyl-4-pyridyl)-3-oxo-7-phenyl-[1,2,4]triazolo[4,3-c]pyrimidin-2-yl]methyl]morpholine-4-carboxylate]

Ki [2]: 6.31 nM
SMILES: Cc1cc(-c2c(-c3ccccc3)nc(N)n3c(=O)n(CCN4CCC5CC54)nc23)cc(C)n1 (stereo not drawn) [Example 2-95, 2-(2-(2-azabicyclo[3.1.0]hexan-2-yl)ethyl)-5-amino-8-(2,6-dimethylpyridin-4-yl)-7-phenyl-[1,2,4]triazolo[4,3-c]pyrimidin-3(2H)-one]

Ki [2]: 25.1 nM
SMILES: Cc1cc(-c2c(-c3ccccc3)nc(N)n3c(=O)n(CCC(N)=O)nc23)cc(C)n1 [Example 2-31, 3-[5-amino-8-(2,6-dimethyl-4-pyridyl)-3-oxo-7-phenyl-[1,2,4]triazolo[4,3-c]pyrimidin-2-yl]propanamide]

Ki [2]: 15.8 nM
SMILES: Cc1cc(-c2c(-c3ccccc3)nc(N)n3c(=O)n(CCN4CCCCC4)nc23)cc(C)n1 [Example 2-96, 5-amino-8-(2,6-dimethyl-4-pyridyl)-7-phenyl-2-[2-(1-piperidyl)ethyl]-[1,2,4]triazolo[4,3-c]pyrimidin-3-one]

Ki [2]: 31.6 nM
SMILES: Cc1cc(-c2c(-c3ccccc3)nc(N)n3c(=O)n(C[C@@H]4CNCCO4)nc23)cc(C)n1 [Example 2-71, (S)-5-amino-8-(2,6-dimethylpyridin-4-yl)-2-(morpholin-2-ylmethyl)-7-phenyl-[1,2,4]triazolo[4,3-c]pyrimidin-3(2H)-one]

More lines, now with the values behind:

SMILES: Cc1cc(-c2c(-c3ccccc3)nc(N)n3c(=O)n(Cc4ccccc4OCC4CC4)nc23)cc(C)n1 [Example 1-22, 5-amino-2-[[2-(cyclopropylmethoxy)phenyl]methyl]-8-(2,6-dimethyl-4-pyridyl)-7-phenyl-[1,2,4]triazolo[4,3-c]pyrimidin-3-one]
Ki [1]: 2 nM
Ki [2]: 0.158 nM

SMILES: CCNC(=O)OCCn1nc2c(-c3cc(C)nc(C)c3)c(-c3ccccc3)nc(N)n2c1=O [Example 2-16, 2-[5-amino-8-(2,6-dimethyl-4-pyridyl)-3-oxo-7-phenyl-[1,2,4]triazolo[4,3-c]pyrimidin-2-yl]ethyl N-ethylcarbamate]
Ki [2]: 20 nM

SMILES: Cc1cc(-c2c(-c3ccccc3)nc(N)n3c(=O)n(CCN(C)C4(CO)CCc5ccccc5C4)nc23)cc(C)n1 (stereo not drawn) [Example 1-99, 5-amino-8-(2,6-dimethyl-4-pyridyl)-2-[2-[[2-(hydroxymethyl)tetralin-2-yl]-methyl-amino]ethyl]-7-phenyl-[1,2,4]triazolo[4,3-c]pyrimidin-3-one]
Ki [2]: 39.8 nM

SMILES: Cc1cc(-c2c(-c3ccccc3)nc(N)n3c(=O)n(Cc4ccc(C#N)cn4)nc23)cc(CO)n1 [Example 1-54, 6-[[5-amino-8-[2-(hydroxymethyl)-6-methyl-4-pyridyl]-3-oxo-7-phenyl-[1,2,4]triazolo[4,3-c]pyrimidin-2-yl]methyl]pyridine-3-carbonitrile]
Ki [2]: 158 nM

SMILES: Cc1cc(-c2c(-c3ccccc3)nc(N)n3c(=O)n(C(C)C)nc23)cc(C)n1 [Example 2-4, 5-amino-8-(2,6-dimethyl-4-pyridyl)-2-isopropyl-7-phenyl-[1,2,4]triazolo[4,3-c]pyrimidin-3-one]
Ki [2]: 50.1 nM

SMILES: Cc1cc(-c2c(-c3ccc(F)cc3)nc(N)n3c(=O)n(CC4CCCN=N4)nc23)cc(CO)n1 (stereo not drawn) [Example 2-93, 5-amino-7-(4-fluorophenyl)-8-[2-(hydroxymethyl)-6-methyl-4-pyridyl]-2-(3,4,5,6-tetrahydropyridazin-3-ylmethyl)-[1,2,4]triazolo[4,3-c]pyrimidin-3-one]
Ki [2]: 31.6 nM

SMILES: Cc1cc(-c2c(-c3ccccc3)nc(N)n3c(=O)n(CCC4CCN(CCC(=O)O)CC4)nc23)cc(C)n1 [Example 2-110, 3-[4-[2-[5-amino-8-(2,6-dimethyl-4-pyridyl)-3-oxo-7-phenyl-[1,2,4]triazolo[4,3-c]pyrimidin-2-yl]ethyl]-1-piperidyl]propanoic acid]
Ki [2]: 126 nM

SMILES: Cc1cnn(-c2nc(N)n3c(=O)n(CCC(F)(F)F)nc3c2-c2cc(C)nc(C)c2)c1 [Example 2-41, 5-amino-8-(2,6-dimethyl-4-pyridyl)-7-(4-methylpyrazol-1-yl)-2-(3,3,3-trifluoropropyl)-[1,2,4]triazolo[4,3-c]pyrimidin-3-one]
Ki [2]: 31.6 nM

SMILES: COC(=O)N1CCCC(NCCn2nc3c(-c4cc(C)nc(C)c4)c(-c4ccccc4)nc(N)n3c2=O)C1 (stereo not drawn) [Example 2-106, methyl 3-[2-[5-amino-8-(2,6-dimethyl-4-pyridyl)-3-oxo-7-phenyl-[1,2,4]triazolo[4,3-c]pyrimidin-2-yl]ethylamino]piperidine-1-carboxylate]
Ki [2]: 100 nM

SMILES: CNC(=O)CCn1nc2c(-c3cc(C)nc(C)c3)c(-c3ccccc3)nc(N)n2c1=O [Example 2-113, 3-(5-amino-8-(2,6-dimethylpyridin-4-yl)-3-oxo-7-phenyl-[1,2,4]triazolo[4,3-c]pyrimidin-2(3H)-yl)-N-methylpropanamide]
Ki [2]: 25.1 nM

SMILES: COc1cc(-c2c(-c3ccc(F)cc3)nc(N)n3c(=O)n(Cc4ccc(C)cn4)nc23)cc(CO)n1 [Example 1-67, 5-amino-7-(4-fluorophenyl)-8-[2-(hydroxymethyl)-6-methoxy-4-pyridyl]-2-[(5-methyl-2-pyridyl)methyl]-[1,2,4]triazolo[4,3-c]pyrimidin-3-one]
Ki [2]: 0.794 nM

SMILES: Cc1cc(-c2c(-c3ccc(F)cc3)nc(N)n3c(=O)n(Cc4ccc(F)cn4)nc23)cc(CO)n1 [Example 1-59, 5-amino-7-(4-fluorophenyl)-2-[(5-fluoro-2-pyridyl)methyl]-8-[2-(hydroxymethyl)-6-methyl-4-pyridyl]-[1,2,4]triazolo[4,3-c]pyrimidin-3-one]
Ki [2]: 1.58 nM

SMILES: Cc1cc(-c2c(-c3ccco3)nc(N)n3c(=O)n(CCC(F)(F)F)nc23)cc(C)n1 [Example 2-42, 5-amino-8-(2,6-dimethyl-4-pyridyl)-7-(2-furyl)-2-(3,3,3-trifluoropropyl)-[1,2,4]triazolo[4,3-c]pyrimidin-3-one]
Ki [2]: 1 nM

— patent US12528815B2, “5-amino-8-(4-pyridyl)-[1,2,4]triazolo[4,3-c]pyrimidin-3-one compounds for use against cancer” (Nxera Pharma UK Limited, priority 2020, dated 2026)
